The values below come from patent US20240115875A1, “Systems, Methods, and Substances for Controlled Endoluminal Energy Application” (Dream Big Biotechnologies B.V., priority 2021, published 2024).

Series [1] relates to tumor tissue. In words: Estimated PDT threshold doses for several photosensitizers (photodynamic threshold model). The conditions noted are these: in tumor, from uptake and molar weight. The method, then: In these simulations, we assumed intravenous administration of a light-absorbing drug and the placement of a light emitter in the endovascular system at the site of tumor encroachment around it. Light absorbed by the photosensitizer was assumed to result in the local creation of short-lived cytotoxic radicals, causing cell death e.g. hemorrhagic tissue necrosis and apoptosis. To quantify the attainable effects, light-dose escalation studies were performed using Monte Carlo light propagation simulations (FullMonteCUDA) (“High-performance, robustly verified Monte Carlo simulation with FullMonte,” J. Biomed. Opt. 23(8), 085001 (2018)). The use of the photosensitizer BPD-MA mediated PDT was initially investigated in a simple “cube and tube” geometry representing the pancreas and a vessel traversing its center. The multilayered tube represented the vascular wall layers, intima, media and adventitia having an air-filled balloon with a linear line source in the center. […] Simulation properties were assigned as described above and PDT activation energies were escalated over the range of 10-100 J cm^−1 diffuser length, and the anticipated threshold dose in mJ·cm^−3 and radii of necrosis were estimated based on the photodynamic threshold model introduced by Patterson M, Wilson B C, Graff R: In vivo test of the concept of photodynamic threshold dose in normal rat liver photosensitized by aluminum chlorosulfunated phthalocyanine. Photochem Photobiol, 51(3): 343-349, 1990.
The pancreatic model is shown in FIG. 7A comprising a 4×4×5 cm cube, one half is assigned with optical properties of normal pancreatic tissue and the other half with those of cancerous pancreatic tissues. Running through the cube's center is a blood vessel made up of three layers, intima, media, adventitia, with assigned properties from the literature for aortic tissues. An initial dose-escalation simulation investigated if an adequate fluence [J·cm^−2] can be delivered through the vessel wall to create a surgically sufficiently large circumferential necrotic margin (mm) surrounding the vessel, based on the photosensitizer accumulation and the sensitizer's molar extinction coefficient. The vessel's inner diameter and wall thickness were set to 7.0 mm and 1.30 mm, respectively. The energy emitting source was cylindrical in shape with a length of 20 mm and the irradiance at the intima surface was fixed at 200 mW·cm^−2. The exposure times escalated to deliver 10 to 100 J total energy. An example of the absorbed energy density as a function of radius from the vessel center is shown in FIG. 7B, with an estimated necrotic margin ranging from […]. The subsequent necrotic clearing of viable tumor tissue from the adventitia is predicted based on the threshold model for common photosensitizers, see Tables 1 and 2.

The subject of series [2] is tumor tissue. The following applies: input of the simulation, cited from earlier work; for Tumor uptake: assumed tissue uptake; for Molar extinction coefficient ϵ: at the wavelength given with each photosensitizer (630-690 nm).
Series [3] is described as follows: In-vivo porcine model, heart rate and blood pressure during photosensitizer infusion. Set-up: species or system Sus scrofa domesticus. The following applies: for changes in blood pressure or heart rate during the injection: 5% i.v. dextrose drip. The method, then:
The preclinical experiments in pigs required some precautions.
[…] […] The animal gradually recovered after 10 to 20 min and stabilized to normal heart rates.

The subject of series [4] is porcine pancreas, splenic vein and artery. In words: In-vivo dose escalation in healthy porcine, endovascular balloon-catheter PDT, 48h CT and histopathology. The method, then:
The performance of Monte Carlo simulations determined that the photosensitizer verteporfin appears to be a suitable photosensitizer and that perivascular necrosis can occur when irradiating at relevant light dose ranges in a clinically acceptable time range of several minutes. In-vivo experiments were carried out in healthy porcine (n=7) delivering light irradiation from an endovascular balloon-catheter laser probe.
The irradiating balloon catheter was placed in the splenic vein (crosshair) and an increasingly large hypodense margin, interpreted as PDT induced necrosis, can be observed for increasing doses.
In FIG. 12A, the pancreas can be observed with the splenic vein, artery, and the approximate location of the irradiating balloon catheter. Radially extending into the pancreas is a circumferential margin of necrosis (dotted line and arrows, circa 10 mm).

The test system of series [5] is porcine pancreas and target vessels (splenic, hepatic, superior mesenteric artery).
Description: Five large white porcine (Sus scrofa domesticus), weighing between 25-43 kg, were used as animal model, because the anatomy of the porcine pancreas and its vasculature closely resembles that of the human. Animals were handled according to the European Directive 2010/63 and French laws concerning animal protection in laboratories.
Following the intravascular procedure, porcine recovered from anesthesia and were housed for a survival period of 24 hours up to one week. After the survival period the sedation protocol above was repeated and general anesthesia was induced using intravenous (18 G Intravenous catheter in-ear vein) propofol 3 mg/kg, followed by orotracheal intubation and maintained with rocuronium 0.8 mg/kg along with inhaled isoflurane 2%. At the end of the experiment, animals were euthanized with an intravenous injection of pentobarbital 40 mg/kg IV (Exagon ND, Axience).
To counteract possible effects of BPD-MA on the porcine blood pressure, the antihistamine dexchlorpheniramine was given the days before and immediately prior to the start of photosensitizer infusion. Polaramine® was administered at 2 mg p.o. BID to TID the day before and Polaramine® 5 mg IV (slow bolus) 30 to 60 minutes before photosensitizer injection. Methylprednisolone SoluMedrol®120 (3 mg kg-1) was administered also IV (slow bolus) 30 to 60 minutes before photosensitizer injection. […]
To visualize the pancreas and its target vessels for treatment planning, non-enhanced and contrast-enhanced CT scans were carried out shortly before treatment, in the early arterial and early portal venous phase. […] A 3D vascular roadmap was obtained via software manipulation (syngo.via, Siemens Healthineers AG, Germany) and the position, morphology and dimensions of the target vessels were assessed and used for later co-localization during the angiography-guided procedure and placement of a suitably sized PDT light source, being a prototype irradiating balloon catheter. […]

With `c1ccc2c(c1)-c1nc-2nc2[nH]c(nc3nc(nc4[nH]c(n1)c1ccccc41)-c1ccccc1-3)c1ccccc21` [Phthalocyanine], the Photosensitizer concentration in the series on tumor tissue [1] is 2.3 · 10^−5 M. Moreover, the Tumor uptake in the series with tumor tissue [2] was 12.3 mg/g.
With `C=Cc1c(C)c2cc3nc(c(CC(=O)N[C@@H](CC(=O)O)C(=O)O)c4[nH]c(cc5nc(cc1[nH]2)C(C)=C5CC)c(C)c4C(=O)O)[C@@H](CCC(=O)O)[C@@H]3C` [Talaporfin], in the series on tumor tissue [1], the Photosensitizer concentration is 2.2 · 10^−6 M. For the same molecule, in the series on tumor tissue [2], the Tumor uptake was 1.62 mg/g and the “Molar extinction coefficient ϵ” value is reported as 40,000 M^−1 cm^−1.
As to `Oc1cccc(-c2c3nc(c(-c4cccc(O)c4)c4ccc([nH]4)c(-c4cccc(O)c4)c4nc(c(-c5cccc(O)c5)c5ccc2[nH]5)CC4)C=C3)c1` [Temoporfin, 5,10,15,20-Tetra(m-hydroxyphenyl)chlorin], the Tumor uptake in the series on tumor tissue [2] is 0.5 mg/g.
Take Photofrin: the Photosensitizer concentration in the series on tumor tissue [1] is given as 6.8 · 10^−6 M. Also, in the series on tumor tissue [2], the Tumor uptake is 8.1 mg/g and the “Molar extinction coefficient ϵ” value was 1,170 M^−1 cm^−1.
Consider “benzoporphyrin derivative monoacid ring A [Verteporfin]”, for which the Photosensitizer concentration in the series with tumor tissue [1] was 3.3 · 10^−5 M. In series [3] (first porcine, i.v. saline drip, without pre-medications, injection stopped at 0.2 mg kg^−1), the “changes in heart rate during injection” value is reported as “Immediate changes occurred in the heart rate, decreasing to a degree that adrenaline was administered to stabilize the animal”. Further, the “changes in blood pressure or heart rate during the injection” value in series [3] (porcine 2-3, pre-medicated excluding heparin, 0.4 mg·kg^−1) is “No changes occurred in blood pressure or heart rate during the injection”. In addition, in series [3] (porcine 4-5, pre-medicated including heparin, 1.6 mg·kg^−1), the “changes in blood pressure or heart rate during the injection” value is recorded as “No changes occurred in blood pressure or heart rate during the injection”. For the same molecule, the “radius of apparent perivascular circumferential tissue necrosis” value in series [4] (0.4-3.2 mg/kg, light irradiation 8-25 minutes, 48h contrast-enhanced CT and histopathology, n=7) is 2-15 mm. Moreover, in series [4] (L-size dose 1.6 mg/kg, 48h post PDT), the “artery and vein wall histopathology” value was “intact vessel unruptured walls albeit with atrophic muscular cells and ulcerated endothelial cells”. Further, in series [4] (L-size dose 1.6 mg/kg, 48h post PDT, H&E and EVG), the “circumferential margin of necrosis extending into the pancreas, histopathology” value is reported as “circa 10 mm”. Moreover, in series [5] (0.4-1.6 mg·kg^−1 i.v., 690 nm, 150 mW·cm^−2, 75-225 J·cm^−2, CT 24 h to one week), the “hypodense area around the target vessel on contrast-enhanced CT, extending outwards from the outer wall of the vessel (possible PDT-induced necrosis)” value is listed as 2-6 mm. In addition, in series [5] (in vivo), the “splenic arterial wall histopathology” value is “endothelial loss and necrotic cellular tissues were observed, but the extracellular matrix containing collagen and elastin was preserved in some cases”; the “vessel structural integrity on contrast-enhanced CT” value is “no perforations, ruptures, and bleedings were observed”. In addition, in the series with tumor tissue [2], the Tumor uptake is 23.9 mg/g and the “Molar extinction coefficient ϵ” value was 33,000 M^−1 cm^−1.
